# Patent US20020019527A1 (priority 2000, published 2002)
# Where a name gives a salt, the structure may show the parent alone.
# Target: T1, Farnesyltransferase (FTase) (Bos taurus, UniProt P29702+P49355)
# T1 construct: precipitation from a beef brain homogenate; from tissue; host or cells: bovine brain
# Test: Farnesyltransferase inhibition (scintillation proximity assay, [3H]-FPP / biotin-K-ras peptide)
# Assay type: biochemical, bovine
# Conditions: not given
# How it was run: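 Read-out: [3H]-FPP prenylation of a biotinylated K-ras peptide by SPA, measured 1 h after quenching. Enzyme: FTase purified from bovine brain (ammonium sulfate cut, DEAE Sepharose), free of GGTase I and II. Test compounds in ethanol, diluted 10-fold into the reaction.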
# T1 sequence (P49355 whole entry, one chain of several): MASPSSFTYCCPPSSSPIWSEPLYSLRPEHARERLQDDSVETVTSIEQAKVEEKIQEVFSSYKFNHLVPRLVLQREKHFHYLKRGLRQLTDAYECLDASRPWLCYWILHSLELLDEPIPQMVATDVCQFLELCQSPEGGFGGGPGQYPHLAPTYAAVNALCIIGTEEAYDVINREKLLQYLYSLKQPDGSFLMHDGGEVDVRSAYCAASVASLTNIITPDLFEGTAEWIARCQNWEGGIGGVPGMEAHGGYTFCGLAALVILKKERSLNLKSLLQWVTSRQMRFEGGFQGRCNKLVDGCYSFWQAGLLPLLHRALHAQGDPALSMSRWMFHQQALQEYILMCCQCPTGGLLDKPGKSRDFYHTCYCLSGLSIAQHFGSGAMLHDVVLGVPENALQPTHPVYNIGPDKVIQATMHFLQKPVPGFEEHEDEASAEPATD
row,Structure (SMILES),% Inhibition at 10^−6M [%]
1,Cc1ccccc1-c1cc(C(OCc2cccc(C(F)(F)F)c2)c2cncn2C)ccc1C#N.Cl (stereo not shown) [Example 123],97

# Same assay, conditions: compound at 10^−6 M; bovine FTase, 37° C., 30 minutes
Structure (SMILES),inhibition at 1 µM [%],% Inhibition at 10^−6M [%]
"Cn1cncc1C(NC1CCN(C(=O)OCc2ccccc2)CC1)c1ccc(C#N)c(-c2cccc3ccccc23)c1 (stereo not shown) [Example 54, benzyl 4-(((4-cyano-3-(1-naphthyl)phenyl)(1-methyl-1H-imidazol-5-yl)methyl)amino)-1-piperidinecarboxylate dihydrochloride]",100,–
"Cc1cccc(-c2cc(C(OCc3ccc(C#N)cn3)c3cncn3C)ccc2C#N)c1C (stereo not shown) [Example 281, 6-(((6-cyano-2′,3′-dimethyl(1,1′-biphenyl)-3-yl)(1-methyl-1H-imidazol-5-yl)methoxy)methyl)nicotinonitrile dihydrochloride]",98,–
"Cn1cncc1C(OCc1ccccc1)c1ccc(C#N)c(C2CCCCC2)c1 (stereo not shown) [Example 100, 4-((benzyloxy)(1-methyl-1H-imidazol-5-yl)methyl)-2-cyclohexylbenzonitrile hydrochloride]",83,–
"Cn1cncc1CN(Cc1ccccc1)c1ccc(C#N)c(-c2cccc3ccccc23)c1 [Example 232, 4-(benzyl((1-methyl-1H-imidazol-5-yl)methyl)amino)-2-(1-naphthyl)benzonitrile]",100,–
"Cn1cncc1C(OCc1ccc(C#N)c(Br)c1)c1ccc(C#N)c(-c2cccc3ccccc23)c1 (stereo not shown) [Example 75, 4-(((3-bromo-4-cyanobenzyl)oxy)(1-methyl-1H-imidazol-5-yl)methyl)-2-(1-naphthyl)benzonitrile hydrochloride]",100,–
"Cn1cncc1C(OCc1ccc(F)c(C(F)(F)F)c1)c1ccc(C#N)c(-c2ccccc2C(F)(F)F)c1 (stereo not shown) [Example 250, 5-(((4-fluoro-3-(trifluoromethyl)benzyl)oxy)(1-methyl-1H-imidazol-5-yl)methyl)-2′-(trifluoromethyl)(1,1′-biphenyl)-2-carbonitrile hydrochloride]",99,–
"COC(=O)c1ccc(COC(c2ccc(C#N)c(-c3ccccc3C)c2)c2cncn2C)cc1 (stereo not shown) [Example 130, methyl 4-(((6-cyano-2′-methyl(1,1′-biphenyl)-3-yl)(1-methyl-1H-imidazol-5-yl)methoxy)methyl)benzoate hydrochloride]",97,–
"Cc1ccccc1-c1cc(C(OCc2cc3c(cc2Cl)OCO3)c2cncn2C)ccc1C#N (stereo not shown) [Example 152, 5-(((6-chloro-1,3-benzodioxol-5-yl)methoxy)(1-methyl-1H-imidazol-5-yl)methyl)-2′-methyl(1,1′-biphenyl)-2-carbonitrile hydrochloride]",89,–
"Cc1ccc(-c2cc(C(OCc3ccccc3)c3cncn3C)ccc2C#N)cc1 (stereo not shown) [Example 93, 5-((benzyloxy)(1-methyl-1H-imidazol-5-yl)methyl)-4′-methyl(1,1′-biphenyl)-2-carbonitrile hydrochloride]",58,–
"COC(=O)c1cccc(COC(c2ccc(C#N)c(-c3ccccc3C)c2)c2cncn2C)c1 (stereo not shown) [Example 146, methyl 3-(((6-cyano-2′-methyl(1,1′-biphenyl)-3-yl)(1-methyl-1H-imidazol-5-yl)methoxy)methyl)benzoate hydrochloride]",93,–
"Cn1cncc1C(NCc1ccc(C#N)cn1)c1ccc(C#N)c(-c2cccc3ccccc23)c1 (stereo not shown) [Example 51, 6-((((4-cyano-3-(1-naphthyl)phenyl)(1-methyl-1H-imidazol-5-yl)methyl)amino)methyl)nicotinonitrile trihydrochloride]",100,–
"CN(Cc1cncn1C)c1ccc(C#N)c(-c2cccc3ccccc23)c1 [Example 227, 4-(methyl((1-methyl-1H-imidazol-5-yl)methyl)amino)-2-(1-naphthyl)benzonitrile]",100,–
"Cn1cncc1C(OCc1ccc(S(C)(=O)=O)cc1)c1ccc(C#N)c(-c2cccc3ccccc23)c1 (stereo not shown) [Example 73, 4-((1-methyl-1H-imidazol-5-yl)((4-(methylsulfonyl)benzyl)oxy)methyl)-2-(1-naphthyl)benzonitrile hydrochloride]",100,–
Cl.Cn1cncc1C(OCc1ccccc1)c1ccc(C#N)c(-c2c3ccccc3cc3ccccc23)c1 (stereo not shown) [Example 7],–,92
"COc1cc(COC(c2ccc(C#N)c(-c3ccccc3C)c2)c2cncn2C)cc(OC)c1 (stereo not shown) [Example 150, 5-(((3,5-dimethoxybenzyl)oxy)(1-methyl-1H-imidazol-5-yl)methyl)-2′-methyl(1,1′-biphenyl)-2-carbonitrile hydrochloride]",93,–
"Cc1ccccc1-c1cc(N(Cc2cncn2C)C(=O)c2ccccc2)ccc1C#N [Example 236, N-(6-cyano-2′-methyl(1,1′-biphenyl)-3-yl)-N-((1-methyl-1H-imidazol-5-yl)methyl)benzamide]",93,–
"Cc1ccccc1-c1cc(C(OCc2ncc(C(F)(F)F)cc2Cl)c2cncn2C)ccc1C#N (stereo not shown) [Example 182, 5-(((3-chloro-5-(trifluoromethyl)-2-pyridinyl)methoxy)(1-methyl-1H-imidazol-5-yl)methyl)-2′-methyl(1,1′-biphenyl)-2-carbonitrile hydrochloride]",89,–
"Cl.Cl.Cn1cncc1C(OCc1cc(Cl)nc(Cl)c1)c1ccc(C#N)c(-c2cccc3ccccc23)c1 (stereo not shown) [Example 74, 4-(((2,6-dichloro-4-pyridinyl)methoxy)(1-methyl-1H-imidazol-5-yl)methy)-2-(1-naphthyl)benzonitrile dihydrochloride]",–,100
"Cn1cncc1CN(Cc1ccc(C#N)c(-c2cccc3ccccc23)c1)C(=O)c1ccc(Cl)c(Cl)c1 [Example 197, 3,4-dichloro-N-(4-cyano-3-(1-naphthyl)benzyl)-N-((1-methyl-1H-imidazol-5-yl)methyl)benzamide]",93,–
"Cn1cncc1CN(Cc1ccc(C#N)cc1)Cc1ccc(C#N)c(-c2cccc3cccnc23)c1 [Example 114, 4-(((4-cyanobenzyl)((1-methyl-1H-imidazol-5-yl)methyl)amino)methyl)-2-(8-quinolinyl)benzonitrile]",99,–
"Cn1cncc1C(OCc1ccc(Cl)c(Cl)c1)c1ccc(C#N)c(-c2cccc3cccnc23)c1 (stereo not shown) [Example 240, 4-(((3,4-dichlorobenzyl)oxy)(1-methyl-1H-imidazol-5-yl)methyl)-2-(8-quinolinyl)benzonitrile dihydrochloride]",95,–

# More lines, main results first:
inhibition at 1 µM [%],Structure (SMILES),% Inhibition at 10^−6M [%]
95,"Cc1ccccc1-c1cc(C(OCc2ccc(F)cc2C(F)(F)F)c2cncn2C)ccc1C#N (stereo not shown) [Example 141, 5-(((4-fluoro-2-(trifluoromethyl)benzyl)oxy)(1-methyl-1H-imidazol-5-yl)methyl)-2′-methyl(1,1′-biphenyl)-2-carbonitrile hydrochloride]",–
90,"Cc1ccccc1-c1cc(C(OCc2cccc(C#N)c2)c2cncn2C)ccc1C#N (stereo not shown) [Example 113, 5-(((3-cyanobenzyl)oxy)(1-methyl-1H-imidazol-5-yl)methyl)-2′-methyl(1,1′-biphenyl)-2-carbonitrile hydrochloride]",–
100,"Cn1cncc1C(NCc1ccc(Cl)cc1)c1ccc(C#N)c(-c2cccc3ccccc23)c1 (stereo not shown) [Example 42, 4-(((4-chlorobenzyl)amino)(1-methyl-1H-imidazol-5-yl)methyl)-2-(1-naphthyl)benzonitrile]",–
100,"CCCCCCN(Cc1cncn1C)c1ccc(C#N)c(-c2cccc3ccccc23)c1 [Example 233, 4-(hexyl((1-methyl-1H-imidazol-5-yl)methyl)amino)-2-(1-naphthyl)benzonitrile]",–
99,"Cn1cncc1C(OCc1ccc(C#N)cc1)c1ccc(C#N)c(-c2ccccc2C=O)c1 (stereo not shown) [Example 200, 5-(((4-cyanobenzyl)oxy)(1-methyl-1H-imidazol-5-yl)methyl)-2′-formyl(1,1′-biphenyl)-2-carbonitrile hydrochloride]",–
100,"Cn1cncc1C(NCCc1ccccc1)c1ccc(C#N)c(-c2cccc3ccccc23)c1 (stereo not shown) [Example 31, 4-((1-methyl-1H-imidazol-5-yl)(phenethylamino)methyl)-2-(1-naphthyl)benzonitrile]",–
80,"COc1cccc(-c2nc(COC(c3ccc(C#N)c(-c4ccccc4C)c3)c3cncn3C)no2)c1 (stereo not shown) [Example 173, 5-(((5-(3-methoxyphenyl)-1,2,4-oxadiazol-3-yl)methoxy)(1-methyl-1H-imidazol-5-yl)methyl)-2′-methyl(1,1′-biphenyl)-2-carbonitrile hydrochloride]",–
96,"Cc1ccccc1-c1cc(C(OCc2cc(Cl)nc(Cl)c2)c2cncn2C)ccc1C#N (stereo not shown) [Example 137, 5-(((2,6-dichloro-4-pyridinyl)methoxy)(1-methyl-1H-imidazol-5-yl)methyl)-2′-methyl(1,1′-biphenyl)-2-carbonitrile hydrochloride]",–
100,"Cn1cncc1C(NC1CCN(Cc2ccccc2)CC1)c1ccc(C#N)c(-c2cccc3ccccc23)c1 (stereo not shown) [Example 55, 4-(((1-benzyl-4-piperidinyl)amino)(1-methyl-1H-imidazol-5-yl)methyl)-2-(1-naphthyl)benzonitrile trihydrochloride]",–
100,"Cn1cncc1C(OCc1ccc(C#N)cc1)c1ccc(C#N)c(-c2cccc3ncccc23)c1 (stereo not shown) [Example 43, 4-(((4-cyanobenzyl)oxy)(1-methyl-1H-imidazol-5-yl)methyl)-2-(5-quinolinyl)benzonitrile dihydrochloride]",–
96,"Cn1cncc1C(OCc1ccc(C#N)cc1)c1ccc(C#N)c(-c2ccccc2CO)c1 (stereo not shown) [Example 204, 5-(((4-cyanobenzyl)oxy)(1-methyl-1H-imidazol-5-yl)methyl)-2′-(hydroxymethyl)(1,1′-biphenyl)-2-carbonitrile]",–
90,"Cc1ccccc1-c1cc(C(OCc2c(Cl)cccc2Cl)c2cncn2C)ccc1C#N (stereo not shown) [Example 124, 5-(((2,6-dichlorobenzyl)oxy)(1-methyl-1H-imidazol-5-yl)methyl)-2′-methyl(1,1′-biphenyl)-2-carbonitrile hydrochloride]",–
